Reference: patent US20080107761A1, “Composition and Method For Promoting the Production of and/or Enhancing the Activity of Fibulin-5” (Shiseido Company, Ltd., priority 2004, published 2008)

System: fibulin-5 mRNA
Test: Expression and determination of fibulin-5 mRNA in human fibroblasts by quantitative PCR
Format: cell-based
Details: for Effect on fibulin-5 production in human fibroblasts (% of the control) Mean ± SD: 24 hours culture, relative to no-addition control; for Effect of promoting fibulin-5 production (in words): summary of Table 1
Procedure: Adhering cells were suspended by a trypsin-ethylenediaminetetraacetic acid (EDTA) treatment and then filtered to obtain a homogeneous cell suspension. Cells were collected by centrifugation and suspended at 0.2x10^6 cells/ml. Three ml each of the cell suspension was inoculated to a 6-well plate. After the cells adhered, the medium was replaced with a 0.25% by weight FBS-containing DMEM. After culturing at 37° C for 24 hours, the medium was replaced with 0.25% by weight FBS-containing DMEM containing either of a few dozen of pharmaceutical agents. After culturing for further 24 hours, the culture supernatant was removed, and mRNA was recovered by the ABI PRISM 6100 Nucleic Acid PrepStation Kit (Applied Biosystems). […] The primers and probes used in this Example are as follows: The determination of mRNA expression was conducted in three groups, and was expressed in percentage relative to the mean of the no-addition control group.

SMILES	Effect on fibulin-5 production in human fibroblasts (% of the control) Mean ± SD (25 μg/ml (0.0025% by weight))	Effect on fibulin-5 production in human fibroblasts (% of the control) Mean ± SD (250 μg/ml (0.025% by weight))	Effect of promoting fibulin-5 production (in words)
O=C(O)[C@@H]1C[C@@H](O)CN1 [L-hydroxyproline, (2S,4R)-4-hydroxypyrrolidine-2-carboxylic acid]	110.1 ± 11.0 % of the control	147.3 ± 8.9 % of the control	significant effect of promoting fibulin-5 production
O=P(O)(O)O[C@H]1[C@H](OP(=O)(O)O)[C@@H](OP(=O)(O)O)[C@H](OP(=O)(O)O)[C@@H](OP(=O)(O)O)[C@H]1OP(=O)(O)O [phytic acid, myo-inositol hexakis- phosphate]	93.0 ± 24.4 % of the control	126.1 ± 16.4 % of the control	significant effect of promoting fibulin-5 production
